Assay results: patent US20250179045A1, “LPAR1 ANTAGONISTS AND USES THEREOF” (Contineum Therapeutics, Inc., priority 2021, published 2025)
pIC50: −log10 of the molar value.

Target: human LPA1 (Homo sapiens, UniProt Q92633)
Experiment: In vitro functional assay of lysophosphatidic acid receptor 1 activity (calcium flux)
Format: cell-based
Conditions: B103 cells stably expressing human LPA1; Fluo-4 NW calcium flux after lysophosphatidic acid (18:1) at EC80; compounds 100 pM to 10 μM; read-out: LPA1 IC50
Summary of the method: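 B103 cells stably expressing human LPA1 plated onto compound for 24 h at 37 °C, loaded with Fluo-4 NW dye, re-exposed to compound (30 min 37 °C plus 30 min room temp).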

human LPA1, sequence (Q92633 whole entry): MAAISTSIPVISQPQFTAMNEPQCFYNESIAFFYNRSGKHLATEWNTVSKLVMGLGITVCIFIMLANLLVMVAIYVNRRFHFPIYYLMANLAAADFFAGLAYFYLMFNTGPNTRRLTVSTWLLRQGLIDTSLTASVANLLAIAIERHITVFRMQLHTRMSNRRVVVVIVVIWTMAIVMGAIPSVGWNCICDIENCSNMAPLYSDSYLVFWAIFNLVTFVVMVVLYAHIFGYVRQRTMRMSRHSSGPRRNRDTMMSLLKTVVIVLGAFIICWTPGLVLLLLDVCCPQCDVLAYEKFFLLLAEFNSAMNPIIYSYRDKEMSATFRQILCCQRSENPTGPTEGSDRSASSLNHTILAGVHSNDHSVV

Compound | pIC50
Cc1ccc(NC(=O)C2(c3ccccc3C(C)C)CC(NC3CC3)C2)c(OC(F)F)n1 (single isomer, unassigned) [Example 40-isomer B, 3-(cyclopropylamino)-N-(2-(difluoromethoxy)-6-methylpyridin-3-yl)-1-(2-isopropylphenyl)cyclobutane-1-carboxamide] | 6.00 to 7.00
Cc1ccc(NC(=O)C2(c3ccccc3C(C)C)CC(N(C)S(C)(=O)=O)C2)c(OC(F)F)n1 (centres unmarked) [Example 44, N-(2-(difluoromethoxy)-6-methylpyridin-3-yl)-1-(2-isopropylphenyl)-3-(N-methylmethylsulfonamido)cyclobutane-1-carboxamide] | 6.00 to 7.00
Cc1ccc(NC(=O)C2(c3ccccc3C(C)C)CC(C(=O)N(C)C)C2)c(OC(F)F)n1 (centres unmarked) [Example 66, N^1-(2-(difluoromethoxy)-6-methylpyridin-3-yl)-1-(2-isopropylphenyl)-N^3,N^3-dimethylcyclobutane-1,3-dicarboxamide] | 6.00 to 7.00
COc1ccc(NC(=O)C2(c3ccccc3C(C)C)CCC(S(=O)(=O)N(C)C)CC2)c(OC(F)F)n1 (mixture of isomers) [Example 98, N-(2-(difluoromethoxy)-6-methoxypyridin-3-yl)-4-(N,N-dimethylsulfamoyl)-1-(2-isopropylphenyl)cyclohexane-1-carboxamide] | 6.00 to 7.00
COc1cc(Br)cnc1NC(=O)C1(c2ccccc2C(C)C)COC1 [Example 23, N-(5-bromo-3-methoxypyridin-2-yl)-3-(2-isopropylphenyl)oxetane-3-carboxamide] | 6.00 to 7.00
Cc1ccc(NC(=O)C2(c3ccccc3C(C)C)CC(F)(F)C2)c(OC(F)F)n1 [Example 61, N-(2-(difluoromethoxy)-6-methylpyridin-3-yl)-3,3-difluoro-1-(2-isopropylphenyl)cyclobutane-1-carboxamide] | < 6.00
Cc1ccc(NC(=O)C2(c3ccccc3C(C)C)CC(C(=O)O)C2)c(OC(F)F)n1 (centres unmarked) [Example 65, 3-((2-(difluoromethoxy)-6-methylpyridin-3-yl)carbamoyl)-3-(2-isopropylphenyl)cyclobutane-1-carboxylic acid] | 7.00 to 8.00
COc1cc(C)ccc1NC(=O)C1(c2ccccc2C(C)C)CNC(=O)C1 (centres unmarked) [Example 101, 3-(2-isopropylphenyl)-N-(2-methoxy-4-methylphenyl)-5-oxopyrrolidine-3-carboxamide] | 7.00 to 8.00
COC[C@H](C)Oc1nc(OC)ccc1NC(=O)C1(c2ccccc2C(C)C)COC1 [Example 31, (S)-3-(2-isopropylphenyl)-N-(6-methoxy-2-((1-methoxypropan-2-yl)oxy)pyridin-3-yl)oxetane-3-carboxamide] | 7.00 to 8.00

More lines, now with the values ahead:

pIC50 | Compound
7.00 to 8.00 | Cc1cc(OC(F)F)c(NC(=O)C2(c3ccccc3C(C)C)COC2)cn1 [Example 26, N-(4-(difluoromethoxy)-6-methylpyridin-3-yl)-3-(2-isopropylphenyl)oxetane-3-carboxamide]
7.00 to 8.00 | Cc1ccc(NC(=O)C2(c3ncccc3C(C)C)CC(O)C2)c(OC(F)F)n1 (mixture of isomers) [Example 57, N-(2-(difluoromethoxy)-6-methylpyridin-3-yl)-3-hydroxy-1-(3-isopropylpyridin-2-yl)cyclobutane-1-carboxamide]
> 8.00 | COc1ccc(NC(=O)C2(c3ccccc3C(C)C)CNC(=O)C2)c(OC(F)F)n1 (single isomer, unassigned) [Example 8, N-(2-(difluoromethoxy)-6-methoxypyridin-3-yl)-3-(2-isopropylphenyl)-5-oxopyrrolidine-3-carboxamide]
7.00 to 8.00 | CC(C)c1ccccc1C1(C(=O)Nc2ccc(Cl)cn2)CC(O)(C(F)(F)C(=O)O)C1 (single isomer, unassigned) [Example 93-isomer A, 2-(3-((5-chloropyridin-2-yl)carbamoyl)-1-hydroxy-3-(2-isopropylphenyl)cyclobutyl)-2,2-difluoroacetic acid]
7.00 to 8.00 | COc1cc(Br)ccc1NC(=O)C1(c2ccccc2C(C)C)CNC(=O)C1 (centres unmarked) [Example 104, N-(4-bromo-2-methoxyphenyl)-3-(2-isopropylphenyl)-5-oxopyrrolidine-3-carboxamide]
